Legend:
Format in all cases: cell-based
[1] = target: T1, NKX2-5 transcriptional activity (Mus musculus, UniProt P42582); experiment: NKX2-5 luciferase reporter assay (3xNKE reporter, COS-1 cells); details: COS-1, luciferase reporter activity relative to control
T1 construct: expressed in transfected cells; host or cells: COS-1

[2] = tested on: rat BNP promoter activity in neonatal rat ventricular myocytes; experiment: BNP promoter luciferase reporter in neonatal cardiomyocytes with or without endothelin-1
Method: Five compounds (GATA4–NKX2-5 synergy inhibitors 1, 61, and 65; the synergy activator 2; and the NKX2-5 activity inhibitor 47c) were selected for studies in neonatal cardiomyocytes, which were treated with endothelin-1 (ET-1), a well-established hypertrophic agonist that activates the gene expression of both ANP and BNP (Figure 4). The myocytes were transfected with construct containing −534/+4 proximal region of rat BNP promoter with GATA4 and NKX2-5 binding sites in front of luciferase before exposure to compounds and ET-1, which was added 1 h after the compounds.
Figure 4 Effects of the compounds 1, 2, 47c, 61, and 65 on BNP gene activation in cardiomyocytes. Neonatal cardiomyocytes were transfected with rat BNP luciferase reporter for 24 h. The cells were exposed to compounds and 1 h later to endothelin-1 (ET-1) for 24 h. The results are expressed as +SD (n = 3 or 9 for DMSO groups). ***P < 0.001 vs DMSO; **P < 0.01 vs DMSO; *P < 0.05 vs DMSO (one-way ANOVA followed by Tukey’s HSD or Welch ANOVA followed by Games–Howell); ^###P < 0.001 vs DMSO, no stimulus (independent samples Student’s t test).
The plasmids expressing mouse GATA4 protein, pMT2-GATA4, and empty pMT2 were gifts from D. B. Wilson (Department of Pediatrics, St. Louis Children’s Hospital, St. Louis, MO).[44] The plasmids expressing mouse NKX2-5 protein, pMT2-NKX2-5, have been described earlier.[28] The luciferase reporter plasmid used in GATA4–NKX2-5 transcriptional synergy assay and NKX transcriptional assay, pGL3-3xHA, contains three high affinity binding sites for NKX2-5.[28] The luciferase reporter plasmid used in GATA transcriptional assay, NP-112, contains tandem GATA-sites and minimal promoter of rat brain natriuretic peptide (BNP) gene.[45] The pGL3-BNP luciferase reporter containing −534/+4 bp rat BNP proximal promoter described previously was used in hypertrophy assay.[46]
The neonatal rat ventricular myocytes were isolated from 2- to 3-day-old Wistar rats, as described earlier.[29],[32] Rat pups were acquired from the experimental animal facility of the University of Helsinki with an internal use license (KEK17-012). Animals were housed in standard conditions, and their handling and all procedures were carried out in accordance with University of Helsinki institutional guidelines, which conform to the National Research Council (U.S.) Guide for the Care and Use of Laboratory Animals.[47] The cells were seeded at 50 000 cells/well in Isoplate-96 microplates (PerkinElmer, Turku, Finland) and cultured for 18–20 h with Dulbecco’s modified Eagle medium (DMEM)/F12 culture medium containing 2.5 mM L-glutamine, supplemented with 100 IU/mL penicillin–streptomycin and 10% fetal bovine serum (all from Gibco, Thermo Scientific). Transfections were carried out for 24 h in serum free media (CSFM; DMEM/F12, 2.5 mg/mL bovine serum albumin, 1 μM insulin, 2.5 mM L-glutamine, 32 nM selenium, 2.8 mM sodium pyruvate, 5.64 μg/mL transferrin, 1 nM T3, and 100 IU/mL PS) by using 100 ng of pGL3-BNP luciferase plasmid per well in a 1:3 ratio of DNA/transfection reagent (Fugene 6, Promega). […] After 24 h, the luminescence was measured as above.
Results from cardiomyocyte experiments are expressed as mean + SD from at least three independent experiments. Data were analyzed using IBM SPSS Statistics 24 software. […] Significance between ET-1 and DMSO samples was analyzed with independent samples Student’s t test. […]

[3] = target: T2, GATA4 transcriptional activity (Mus musculus, UniProt Q08369); experiment: GATA4 luciferase reporter assay (tandem GATA-site reporter, COS-1 cells); details: COS-1, luciferase reporter activity relative to control
T2 construct: expressed in transfected cells; host or cells: COS-1
T2 sequence (Q08369 whole entry): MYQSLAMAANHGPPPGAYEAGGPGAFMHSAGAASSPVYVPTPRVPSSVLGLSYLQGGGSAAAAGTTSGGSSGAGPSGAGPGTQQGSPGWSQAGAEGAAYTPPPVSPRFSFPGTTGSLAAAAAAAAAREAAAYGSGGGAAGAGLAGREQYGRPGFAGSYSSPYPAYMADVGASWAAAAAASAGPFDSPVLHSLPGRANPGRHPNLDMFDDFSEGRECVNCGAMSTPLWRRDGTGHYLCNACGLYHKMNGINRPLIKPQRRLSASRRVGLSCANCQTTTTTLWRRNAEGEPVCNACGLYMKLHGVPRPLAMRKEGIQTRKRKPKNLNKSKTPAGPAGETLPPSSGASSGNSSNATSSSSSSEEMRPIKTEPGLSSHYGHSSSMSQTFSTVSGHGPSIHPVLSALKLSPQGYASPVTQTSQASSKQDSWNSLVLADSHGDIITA

[4] = target: T3, GATA4–NKX2-5 transcriptional synergy (Mus musculus, UniProt P42582+Q08369); experiment: GATA4–NKX2-5 transcriptional synergy luciferase reporter assay (3xNKE reporter, COS-1 cells); details: COS-1, luciferase reporter activity relative to control
T3 construct: expressed in transfected cells; host or cells: COS-1
T3 sequence (Q08369 whole entry): as above
T3 sequence (P42582 whole entry): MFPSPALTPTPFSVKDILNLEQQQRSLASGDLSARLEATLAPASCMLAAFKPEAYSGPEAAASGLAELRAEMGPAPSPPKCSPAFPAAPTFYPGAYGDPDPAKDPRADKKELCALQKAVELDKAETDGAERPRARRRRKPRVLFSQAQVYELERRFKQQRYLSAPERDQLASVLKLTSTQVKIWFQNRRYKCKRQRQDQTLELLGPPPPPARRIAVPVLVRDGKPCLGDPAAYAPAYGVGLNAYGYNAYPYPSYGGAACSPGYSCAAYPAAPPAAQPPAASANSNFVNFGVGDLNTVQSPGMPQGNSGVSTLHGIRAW

T1 sequence (P42582 whole entry): as above

| activity at 3 µM ([1]; compound 3 µM, read-out: NKX.3µM) [%] | activity at 10 µM ([1]; compound 10 µM, read-out: NKX.10µM) [%] | activity at 3 µM ([3]; compound 3 µM) [%] | activity at 10 µM ([3]; compound 10 µM) [%] | activity at 3 µM ([4]; compound 3 µM) [%] | activity at 10 µM ([4]; compound 10 µM) [%] | increase in BNP gene activity ([2]; neonatal cardiomyocytes, 24 h) [fold] | Compound | inhibition of the ET-1 hypertrophic response, BNP gene activity (in words) ([2]; 30 μM, ET-1 added 1 h after compound) | effect on BNP promoter activity in cardiomyocytes (in words) ([2]; neonatal cardiomyocytes, 24 h) |
| --- | --- | --- | --- | --- | --- | --- | --- | --- | --- |
| 38.2 | 10.7 | 71.1 | 20.4 | 28.8 | 11.6 |  | CCN(c1ccc(NC(=O)c2cnsc2)cc1)C(C)C [Compound 61] | the most potent inhibitor of the hypertrophic response | most strongly inhibited the BNP promoter activity |
|  |  |  |  |  |  | ~3 | ET-1: endothelin-1, a well-established hypertrophic agonist that activates the gene expression of both ANP and BNP [reference compound] |  |  |
